Test results taken from US20050014152A1, “Drug transporter and use thereof” (priority 2001, published 2005).
Counter-ions that a name gives are not always drawn.

How the values were obtained:
ABCA8 [1] = target: T1, ABCA8 (Homo sapiens, UniProt O94911); assay: uptake of 14C-estradiol-β-glucuronide into Xenopus oocytes injected with cRNA of the drug transporter; assay type: cell-based
T1 construct: expressed in transfected cells; host or cells: Xenopus oocytes (stage V) microinjected with capped cRNA
Protocol: A mature female Xenopus purchased from Hamamatsu Animal was bred under normal conditions. Thereafter, stage V oocytes were selected therefrom, and the cells were incubated in a modified Barth's solution (MBS) containing 88 mM NaCl, 1 mM KCl, 2.4 mM NaHCO3, 15 mM Tris-Cl, 0.3 mM CaNO3, 0.82 mM MgSO4, 0.41 mM CaCl2, 10 μg/ml penicillin and 10 μg/ml streptomycin. Thereafter, cRNA was prepared by a known method using a DNA having the nucleotide sequence represented by SEQ ID NO: 1, and an aqueous solution containing the obtained cRNA was injected into the mature Xenopus oocytes by microinjection. For such microinjection, cRNA whose 5′-terminus was capped or 50 nl of water was injected into the oocytes in vitro, using an automatic injector (IM200J, Narishige, Japan). The thus injected oocytes were cultured at 17° C. for 3 days in MBS, while exchanging the medium with a new one every day. 3 days after the culture, the oocytes expressed a drug transporter.
The used cRNA was obtained by […] of cDNA from Kazusa DNA Research Institute, which has been cloned as one of full-length cDNAs obtained from human brain and has been deposited with NCBI (National Center for Biotechnology Information, USA) under accession No. AB020629.
(§1) The cultured oocytes (n=10 to 20) were mixed with 2 to 3 ml of a medium and an isotope-labeled compound, and the mixture was then placed in a small incubator. Small amounts of the cells were serially sampled. Each oocyte was washed with a fresh MBS 3 times, and it was then dissolved in a 10% SDS solution at room temperature for 30 minutes. As such an isotope-labeled compound, ^14C-estradiol-β-glucuronide that is a model probe for MRP (multidrug resistance associated protein), a member of an ABC transporter family, was used. Subsequently, a scintillation cocktail (ACS2, manufactured by Amersham) was added thereto, and then, a radioactivity taken into the oocyte was measured with a liquid scintillation counter (LSC-3500, manufactured by Aloka).
In this case, the concentration of ^14C-estradiol-β-glucuronide in the medium was 37 nM. […]

ABCA8 [2] = target: T1, ABCA8; assay: ATP dependency of the uptake of 14C-estradiol-β-glucuronide into oocytes; assay type: cell-based; conditions: ATP added, up to 5 mM
Protocol: A protein encoded by a DNA comprising the nucleotide sequence represented by SEQ ID NO: 2has an ATP-binding cassette. Thus, a test was made to see ATP dependency of the uptake of ^14C-estradiol-β-glucuronide. In the test, ATP was added in the above determination of the uptake of ^14C-estradiol-[…], and the same operation was then carried out to determine the uptake of ^14C-estradiol-β-glucuronide.

ABCA8 [3] = target: T1, ABCA8; assay: uptake of various isotope-labeled compounds into oocytes; assay type: cell-based
Protocol: as §1
Subsequently, the uptake of various isotope-labeled compounds into cells was measured. Measurement was carried out in the same manner as in Example 1 with the exception that the following compounds were used. • LTC4 (leukotriene C4): a substrate for MRP (an additive amount: 20 μM) • Taurocholic acid: a substrate for OAT (an additive amount: 100 μM) • TEA (tetraethylammonium): a substrate for OCT (an additive amount: 10 nM) • Digoxin: a substrate for MDR (an additive amount: 100 nM) • Doxorubicin: a substrate for MDR (an additive amount: 100 μg/ml) • PAH (para-aminohippuric acid): a substrate for MRP and OAT (an additive amount: 1 mM)

ABCA8 [4] = target: T1, ABCA8; assay: uptake of 3H-indoxyl sulfate into oocytes and its inhibition by probenecid; assay type: cell-based
Protocol: as §1
(§2) The same procedure was carried out as in Example 1 with the exception that ^3H-labeled indoxyl sulfate, one of the urinary toxins, was isotope-labeled with ^3H was used as a compound in a concentration of 2 μM. At the same time, a system to which probenecid was added in a concentration of 1 mM, and a system to which water was added instead of cRNA, were also subjected to the same test.

ABCA8 [5] = target: T1, ABCA8; assay: inhibition test of the uptake of 14C-estradiol-β-glucuronide into oocytes by various compounds; assay type: cell-based; conditions: for uptake of 14C-estradiol-β-glucuronide decreased to: inhibitor additive amount 10 μM
Protocol: An inhibition test was carried out on the protein encoded by a DNA comprising the nucleotide sequence represented by SEQ ID NO: 2. In the test, in the above described determination of the uptake of ^14C-estradiol-β-glucuronide, various types of compounds were previously added to a reaction medium, so as to examine whether or not the uptake of ^14C-estradiol-β-glucuronide was inhibited by the compounds.

[6] = substrate: O=S(=O)(O)Oc1c[nH]c2ccccc12; assay: uptake of 3H-indoxyl sulfate into oocytes and its inhibition by probenecid; assay type: cell-based, human; conditions: other: cRNA-injected oocytes
Protocol: as §1, §2

Molecule: ^14C-estradiol-β-glucuronide
- intake of 14C-estradiol-β-glucuronide into the cells (ABCA8 [1]; 37 nM in the medium, about 60 minutes): 138±5.5 fmol/hr/egg
- Km (ABCA8 [1]; Michaelis-Menten): 30.4 µM
- Vmax of uptake (ABCA8 [1]; Michaelis-Menten): 8.37 pmol/hr/egg
- influence of ATP concentration on uptake into the cells (ABCA8 [2]): increased with the increase of ATP concentration

Molecule: CC[N+](CC)(CC)CC [TEA, tetraethylammonium]
- uptake of isotope-labeled compound into oocytes (ABCA8 [3]; additive amount 10 nM): does not have a function to transport

Molecule: CCCN(CCC)S(=O)(=O)c1ccc(C(=O)O)cc1 [probenecid, Probenecid]
- effect on uptake of 3H-indoxyl sulfate into the cells (ABCA8 [4]; probenecid 1 mM, 3H-indoxyl sulfate 2 μM): decreased
- inhibitory effect on uptake of 14C-estradiol-β-glucuronide (ABCA8 [5]; additive amount 1 mM): small extent of inhibitory effect

Molecule: O=S(=O)(O)Oc1c[nH]c2ccccc12 [^3H-indoxyl sulfate, indoxyl sulfate]
- Vmax of uptake (ABCA8 [4]; cRNA-injected oocytes): 5.5 pmol/hr/egg
- uptake of 3H-indoxyl sulfate into oocytes, time course (ABCA8 [4]; cRNA-injected oocytes, 2 μM): linearly increased with time

Molecule: COc1cccc2c1C(=O)c1c(O)c3c(c(O)c1C2=O)C[C@@](O)(C(=O)CO)C[C@@H]3O[C@H]1C[C@H](N)[C@H](O)[C@H](C)O1 [doxorubicin, Doxorubicin]
- uptake of isotope-labeled compound into oocytes (ABCA8 [3]; additive amount 100 μg/ml): does not have a function to transport

Molecule: C[C@@H]1Cc2c(Cl)cc(C(=O)N[C@@H](Cc3ccccc3)C(=O)O)c(O)c2C(=O)O1 [ochratoxin A, Ochratoxin A]
- inhibitory effect on uptake of 14C-estradiol-β-glucuronide (ABCA8 [5]; additive amount 50 μM): inhibitory effect

Molecule: C[C@H](CCC(=O)NCCS(=O)(=O)O)[C@H]1CC[C@H]2[C@@H]3[C@H](O)C[C@@H]4C[C@H](O)CC[C@]4(C)[C@H]3C[C@H](O)[C@]12C [taurocholic acid, Taurocholic acid]
- uptake of isotope-labeled compound into oocytes (ABCA8 [3]; additive amount 100 μM): taken into oocytes

Molecule: CN(C)C(=O)CCSC(SCCC(=O)O)c1cccc(/C=C/c2ccc3ccc(Cl)cc3n2)c1 (centres unmarked) [MK-571]
- uptake of 14C-estradiol-β-glucuronide decreased to (ABCA8 [5]): approximately 30%

Molecule: Nc1ccc(C(=O)NCC(=O)O)cc1 [PAH, para-aminohippuric acid]
- uptake of isotope-labeled compound into oocytes (ABCA8 [3]; additive amount 1 mM): taken into oocytes

Molecule: C[C@H]1O[C@@H](O[C@H]2[C@@H](O)C[C@H](O[C@H]3[C@@H](O)C[C@H](O[C@H]4CC[C@@]5(C)[C@H](CC[C@@H]6[C@@H]5C[C@@H](O)[C@]5(C)[C@@H](C7=CC(=O)OC7)CC[C@]65O)C4)O[C@@H]3C)O[C@@H]2C)C[C@H](O)[C@@H]1O [digoxin, Digoxin]
- uptake of isotope-labeled compound into oocytes (ABCA8 [3]; additive amount 100 nM): excreted therefrom (or its original uptake was inhibited)
- inhibitory effect on uptake of 14C-estradiol-β-glucuronide (ABCA8 [5]; additive amount 0.25 mM): small extent of inhibitory effect

Molecule: CN/C(=N/CCSCc1nc[nH]c1C)NC#N [cimetidine, Cimetidine]
- inhibitory effect on uptake of 14C-estradiol-β-glucuronide (ABCA8 [5]; additive amount 1 mM): no inhibitory effect

Molecule: O=C(C(c1ccccc1)c1ccccc1)N1CCN(CC(O)COc2cccc3ncccc23)CC1 (centres unmarked) [MS-209]
- uptake of 14C-estradiol-β-glucuronide decreased to (ABCA8 [5]): approximately 30%

Molecule: CCCCC/C=C\C\C=C/C=C/C=C/[C@@H](SC[C@H](NC(=O)CC[C@H](N)C(=O)O)C(=O)NCC(=O)O)[C@@H](O)CCCC(=O)O [LTC-4, leukotriene C4]
- uptake of isotope-labeled compound into oocytes (ABCA8 [3]; additive amount 20 μM): taken into oocytes

B1: ABCA8 (Homo sapiens) (protein)
chain: MRKRKISVCQQTWALLCKNFLKKWRMKRESLMEWLNSLLLLLCLYIYPHSHQVNDFSSLLTMDLGRVDTFNESRFSVVYTPVTNTTQQIMNKVASTPFLAGKEVLGLPDEESIKEFTANYPEEIVRVTFTNTYSYHLKFLLGHGMPAKKEHKDHTAHCYETNEDVYCEVSVFWKEGFVALQAAINAAIIEITTNHSVMEELMSVTGKNMKMHSFIGQSGVITDLYLFSCIISFSSFIYYASVNVTRERKRMKALMTMMGLRDSAFWLSWGLLYAGFIFIMALFLALVIRSTQFIILSGFMVVFSLFLLYGLSLVALAFLMSILVKKSFLTGLVVFLLTVFWGCLGFTSLYRHLPASLEWILSLLSPFAFMLGMAQLLHLDYDLNSNAFPHPSDGSNLIVATNFMLAFDTCLYLALAIYFEKILPNEYGHRRPPLFFLKSSFWSQTQKTDHVALEDEMDADPSFHDSFEQAPPEFQGKEAIRIRNVTKEYKGKPDKIEALKDLVFDIYEGQITAILGHSGAGKSTLLNILSGLSVPTKGSVTIYNNKLSEMADLENLSKLTGVCPQSNVQFDFLTVRENLRLFAKIKGILPQEVDKEIFLLDEPTAGLDPFSRHQVWNLLKERKTDRVILFSTQFMDEADILADRKVFLSQGKLKCAGSSLFLKKKWGIGYHLSLQLNEICVEENITSLVKQHIPDAKLSAKSEGKLIYTLPLERTNKFPELYKDLDSYPDLGIENYGVSMTTLNEVFLKLEGKSTINESDIAILGEVQAEKADDTERLVEMEQVLSSLNKMRKTIGGVALWRQQICAIARVRLLKLKHERKALLALLLILMAGFCPLLVEYTMVKIYQNSYTWELSPHLYFLAPGQQPHDPLTQLLIINKTGASIDDFIQSVEHQNIALEVDAFGTRNGTDDPSYNGAITVCCNEKNYSFSLACNAKRLNCFPVLMDIVSNGLLGMVKPSVHIRTERSTFLENGQDNPIGFLAYIMFWLVLTSSCPPYIAMSSIDDYKNRARSQLRISGLSPSAYWFGQALVDVSLYFLVFVFIYLMSYISNFEDMLLTIIHIIQIPCAVGYSFSLIFMTYVISFIFRKGRKNSGIWSFCFYVVTVFSVAGFAFSIFESDIPFIFTFLIPPATMIGCLFLSSHLLFSSLFSEERMDVQPFLVFLIPFLHFIIFLFTLRCLEWKFGKKSMRKDPFFRISPRSSDVCQNPEEPEGEDEDVQMERVRTANALNSTNFDEKPVIIASCLRKEYAGKRKGCFSKRKNKIATRNVSFCVRKGEVLGLLGHNGAGKSTSIKVITGDTKPTAGQVLLKGSGGGDALEFLGYCPQENALWPNLTVRQHLEVYAAVKGLRKGDAEVAITRLVDALKLQDQLKSPVKTLSEGIKRKLCFVLSILGNPSVVLLDEPSTGMDPEGQQQMWQAIRATFRNTERGALLTTHYMAEAEAVCDRVAIMVSGRLRCIGSIQHLKSKFGKDYLLEMKVKNLAQVEPLHAEILRLFPQAARQERYSSLMVYKLPVEDVQPLAQAFFKLEKVKQSFDLEEYSLSQSTLEQVFLELSKEQELGDFEEDFDPSVKWKLLPQEEP
notes: expressed in transfected cells; host or cells: Xenopus oocytes (stage V) microinjected with capped cRNA
- Km [6]: 25.5 µM
